Like-named read-outs stand apart in the source and are kept apart here.
How the values were obtained:
[1] = biological target: T1, human c-mpl-Ba/F3 cells (Homo sapiens, UniProt P40238); assay: Human c-mpl-Ba/F3 cell growth test; assay type: cell-based; conditions: for Emax / Efficacy: maximum cell growth activity; for Emax: read-out: Efficacy
T1 construct: expressed in transfected cells; host or cells: Ba/F3 (murine pro-B cells) expressing human c-mpl
T1 sequence (P40238 26-635): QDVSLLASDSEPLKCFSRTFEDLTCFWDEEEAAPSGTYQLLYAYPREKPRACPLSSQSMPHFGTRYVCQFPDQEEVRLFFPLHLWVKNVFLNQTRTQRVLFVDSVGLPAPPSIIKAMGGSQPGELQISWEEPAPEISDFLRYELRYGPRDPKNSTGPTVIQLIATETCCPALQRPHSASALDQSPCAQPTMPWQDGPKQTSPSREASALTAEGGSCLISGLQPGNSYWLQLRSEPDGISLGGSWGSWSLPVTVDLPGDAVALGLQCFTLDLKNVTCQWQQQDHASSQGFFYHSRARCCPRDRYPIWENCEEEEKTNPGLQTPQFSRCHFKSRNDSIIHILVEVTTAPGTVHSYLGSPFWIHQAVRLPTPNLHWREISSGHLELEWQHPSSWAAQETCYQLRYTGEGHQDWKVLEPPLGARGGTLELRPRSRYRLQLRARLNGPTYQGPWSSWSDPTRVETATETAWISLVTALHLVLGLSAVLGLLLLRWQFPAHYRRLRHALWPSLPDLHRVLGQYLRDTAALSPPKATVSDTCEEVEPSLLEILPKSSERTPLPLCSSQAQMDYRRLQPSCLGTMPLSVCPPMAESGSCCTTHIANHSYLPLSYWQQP
Method: (i) Human c-mpl-Ba/F3 Cell Growth Test
In a 96-well microplate, 2×10^5 cells/ml of human c-mpl-Ba/F3 cells were cultured at 37° C. in 10% fetal bovine serum-containing RPMI1640 medium (100 μl/well) containing each test compound at each concentration. After 24 hours from the start-up of culture, 10 μl/well of WST-1/1-methoxy PMS (cell counting kit, Dojin) was added. Immediately after addition and 2 hours after addition, absorbance of A450/A650 was measured with a microplate reader (Model 3350: Bio-Rad), and an increase in absorbance for 2 hours was defined as a growth activity of each test compound.
pot: Concentration of each test compound at which to accelerate cell growth by 30% of a maximum cell growth activity of compound A (compound A and rhTPO in rhTPO)
Efficacy: Maximum cell growth activity of each test compound when a maximum cell growth activity of compound A (compound A and rhTPO in rhTPO) is defined as 100%.
Compound A refers to a compound in Example 9 of the foregoing Patent Document 10.

[2] = biological target: T1, human c-mpl-Ba/F3 cells; assay: Mouse oral administration test: human c-mpl-Ba/F3 cell growth activity of a plasma after oral administration; assay type: in vivo; conditions: male ICR mouse, plasma 2 h after administration, maximum activity of each test compound = 100%
Method: (iii) Mouse Oral Administration Test
3 mg/kg or 10 mg/kg (100 mg/kg in Comparative Compounds 1 to 3) of a test compound dissolved or suspended in a 0.5% methylcellulose aqueous solution was orally administered to a male ICR mouse. After 2 hours from administration, a blood was sampled from the subabdominal large vein using 1/10-volume 3.8% sodium citrate as an anticoagulant. Centrifugation was performed at 12,000 rpm for 3 minutes. The resulting plasma was heated at 56° C. for 30 minutes, and added to a system of the human c-mpl-Ba/F3 cell growth test described in (i) such that the final concentration of the plasma reached 0.3%, 1% or 3% (10% in Comparative Compounds 1 to 3) to measure a cell growth activity. The cell growth activity (%) of each plasma was measured when the maximum cell growth activity of each test compound was defined as 100%.

[3] = concentration at which cell growth is accelerated by 30% of the maximum cell growth activity of compound A, 24 h culture
[4] = maximum of compound A defined as 100%
[5] = 100 mg/kg p.o., dilution rate 10%
[6] = concentration at which cell growth is accelerated by 30% of the maximum cell growth activity of rhTPO (applies to compound A and rhTPO)
[7] = maximum of rhTPO defined as 100% (applies to compound A and rhTPO)
[8] = 3 mg/kg p.o., dilution rate 0.3%

| Compound | Pot [1, 3] [nM] | Emax [1, 4] [%] | also measured |
| --- | --- | --- | --- |
| O=C1NC(=S)S/C1=C\c1ccc(C(=O)Nc2nc(-c3ccc(Cl)c(Cl)c3)cs2)cc1 [Comparative Compound 1, reference compound] | 4.4 | 101 | Cell growth activity [2, 5]: <10% |
| O=C(O)/C(Cl)=C/c1ccc(C(=O)Nc2nc(-c3ccc(Cl)c(Cl)c3)cs2)cc1 [Comparative Compound 2, reference compound] | 2.1 | 96 | Cell growth activity [2, 5]: <10% |
| Cc1sc(NC(=O)c2ccc(/C=C(\Cl)C(=O)O)cc2)nc1-c1cccc(C(F)(F)F)c1 [Comparative Compound 3, reference compound] | 6.9 | 96 | Cell growth activity [2, 5]: <10% |
| COc1cc(C(=O)Nc2nc(-c3ccc(F)cc3)c(N3CCN(C4CCCCC4)CC3)s2)ccn1 [Comparative Compound 4, reference compound] | 251 | 95 | – |
| O=C(Nc1nc(-c2cc(Cl)cs2)c(N2CCN(C3CCCCC3)CC2)s1)c1ccc(OCCO)c(Cl)c1 [Compound A, reference compound] | – | – | Pot [1, 6]: 10 nM; Emax [1, 7]: 87% |
| CN(C)Cc1sc(NC(=O)c2cnc(N3CCC(C(=O)O)CC3)c(Cl)c2)nc1-c1cc(Cl)cs1 [Example 65, 1-(3-chloro-5-{[4-(4-chlorothiophen-2-yl)-5-(dimethylaminomethyl)thiazol-2-yl]carbamoyl}-2-pyridyl)piperidine-4-carboxylic acid] | 4.3 | 114 | Cell growth activity ([2]; 3 mg/kg p.o., dilution rate 3%): ≧80% |
| O=C(Nc1nc(-c2cc(Cl)cs2)c(CN2CCCCCC2)s1)c1cnc(N2CCC(C(=O)O)CC2)c(Cl)c1 [Example 84, 1-(5-{[5-(azepan-1-ylmethyl)-4-(4-chlorothiophen-2-yl)thiazol-2-yl]carbamoyl}-3-chloro-2-pyridyl)piperidine-4-carboxylic acid] | 4.2 | 103 | Cell growth activity ([2]; 3 mg/kg p.o., dilution rate 1%): ≧80% |
| O=C(Nc1nc(-c2cc(Cl)cs2)c(CN2CCCCCCC2)s1)c1cnc(N2CCC(C(=O)O)CC2)c(Cl)c1 [Example 85] | 3.3 | – | Efficacy [1, 4]: 107%; Cell growth activity ([2]; 3 mg/kg p.o., dilution rate 1%): ≧80% |
| CN(Cc1sc(NC(=O)c2cnc(N3CCC(C(=O)O)CC3)c(Cl)c2)nc1-c1cc(Cl)cs1)C1CC1 [Example 101, 1-{3-chloro-5-[(4-(4-chlorothiophen-2-yl)-5-{[cyclopropyl(methyl)amino]methyl}thiazol-2-yl)carbamoyl]-2-pyridyl}piperidine-4-carboxylic acid] | 3.1 | 108 | Cell growth activity ([2]; 3 mg/kg p.o., dilution rate 1%): 76% |
| C[C@@H]1CCCN1Cc1sc(NC(=O)c2cnc(N3CCC(C(=O)O)CC3)c(Cl)c2)nc1-c1cc(Cl)cs1 [Example 107, 1-{3-chloro-5-[(4-(4-chlorothiophen-2-yl)-5-{[(2R)-2-methylpyrrolidin-1-yl]methyl}thiazol-2-yl)carbamoyl]-2-pyridyl}piperidine-4-carboxylic acid] | 1.5 | 112 | – |
| C[C@H]1CCN(Cc2sc(NC(=O)c3cnc(N4CCC(C(=O)O)CC4)c(Cl)c3)nc2-c2cc(Cl)cs2)C1 [Example 109, 1-{3-chloro-5-[(4-(4-chlorothiophen-2-yl)-5-{[(3S)-3-methylpyrrolidin-1-yl]methyl}thiazol-2-yl)carbamoyl]-2-pyridyl}piperidine-4-carboxylic acid] | 3.9 | 95 | Cell growth activity ([2]; 3 mg/kg p.o., dilution rate 1%): 59% |
| CCCCN(C)Cc1sc(NC(=O)c2cnc(N3CCC(CO)CC3)c(Cl)c2)nc1-c1cc(Cl)cs1 [Example 150, N-[5-{[butyl(methyl)amino]methyl}-4-(4-chlorothiophen-2-yl)thiazol-2-yl]-5-chloro-6-[4-(hydroxymethyl)piperidino]nicotinamide] | 3.6 | 102 | Cell growth activity [2, 8]: 28% |
| CCCCN(C)Cc1sc(NC(=O)c2cnc(NCCCO)c(Cl)c2)nc1-c1cc(Cl)cs1 [Example 151, N-[5-{[butyl(methyl)amino]methyl}-4-(4-chlorothiophen-2-yl)thiazol-2-yl]-5-chloro-6-[(3-hydroxypropyl)amino]nicotinamide] | 8.4 | 99 | Cell growth activity ([2]; 10 mg/kg p.o., dilution rate 3%): 24% |
| C[C@@H]1CCCN1Cc1sc(NC(=O)c2cnc(N(C)CCCC(=O)O)c(Cl)c2)nc1-c1cc(Cl)cs1 [Example 226, 4-[{3-chloro-5-[(4-(4-chlorothiophen-2-yl)-5-{[(2R)-2-methylpyrrolidin-1-yl]methyl}thiazol-2-yl)carbamoyl]-2-pyridyl}(methyl)amino]butyric acid] | 4.6 | 88 | – |
| C[C@H]1CCCN1Cc1sc(NC(=O)c2cnc(N3CCC(C(=O)O)CC3)c(F)c2)nc1-c1cc(Cl)cs1 [Example 314, 1-{5-[(4-(4-chlorothiophen-2-yl)-5-{[(2S)-2-methylpyrrolidin-1-yl]methyl}thiazol-2-yl)carbamoyl]-3-fluoro-2-pyridyl}piperidine-4-carboxylic acid] | – | – | Cell growth activity ([2]; 3 mg/kg p.o., dilution rate 3%): 52% |
| rhTPO: thrombopoietin (TPO), a c-Mpl ligand; a protein | – | – | Pot [1, 6]: 0.012 nM; Efficacy [1, 7]: 100% |

Second part, led by results:

| Pot [1, 3] [nM] | Emax [1, 4] [%] | Compound | also measured |
| --- | --- | --- | --- |
| 2.0 | 94 | CN(Cc1sc(NC(=O)c2cnc(N3CCC(C(=O)O)CC3)c(Cl)c2)nc1-c1cc(Cl)cs1)C1CCCCC1 [Example 90, 1-{3-chloro-5-[(4-(4-chlorothiophen-2-yl)-5-{[cyclohexyl(methyl)amino]methyl}thiazol-2-yl)carbamoyl]-2-pyridyl}piperidine-4-carboxylic acid] | Cell growth activity [2, 8]: ≧80% |
| 6.0 | 87 | CO[C@@H](C)CN(C)Cc1sc(NC(=O)c2cnc(N3CCC(C(=O)O)CC3)c(Cl)c2)nc1-c1cc(Cl)cs1 [Example 111, 1-{3-chloro-5-[(4-(4-chlorothiophen-2-yl)-5-{[[(2S)-2-methoxypropyl](methyl)amino]methyl}thiazol-2-yl)carbamoyl]-2-pyridyl}piperidine-4-carboxylic acid] | – |
| 4.4 | 102 | C[C@@H]1CCCN1Cc1sc(NC(=O)c2cnc(N3CC(CC(=O)O)C3)c(Cl)c2)nc1-c1cc(Cl)cs1 [Example 222, (1-{3-chloro-5-[(4-(4-chlorothiophen-2-yl)-5-{[(2R)-2-methylpyrrolidin-1-yl]methyl}thiazol-2-yl)carbamoyl]-2-pyridyl}azetidin-3-yl)acetic acid] | – |
| 3.2 | 88 | CC(C)N(C)Cc1sc(NC(=O)c2cnc(N(C)CCCC(=O)O)c(Cl)c2)nc1-c1cc(Cl)cs1 [Example 227, 4-[{3-chloro-5-[(4-(4-chlorothiophen-2-yl)-5-{[isopropyl(methyl)amino]methyl}thiazol-2-yl)carbamoyl]-2-pyridyl}(methyl)amino]butyric acid] | – |
